# Measured values reported in ChEMBL document CHEMBL4334526, “Synthesis of Peptoid-Based Class I-Selective Histone Deacetylase Inhibitors with Chemosensitizing Properties” (J Med Chem, 2019).
# Active and inactive are the calls of the source. The rule behind the calls is not given here.
# Tests used:
# [1] = target: T1, Protein deacetylase HDAC6 (Homo sapiens) (UniProt Q9UBN7); assay: Inhibition of HDAC6 in human Cal27CisR cells assessed as acetylation of alpha-tubulin at […] measured after 24 hrs by immunoblot analysis; assay type: cell-based
# T1 sequence (whole entry): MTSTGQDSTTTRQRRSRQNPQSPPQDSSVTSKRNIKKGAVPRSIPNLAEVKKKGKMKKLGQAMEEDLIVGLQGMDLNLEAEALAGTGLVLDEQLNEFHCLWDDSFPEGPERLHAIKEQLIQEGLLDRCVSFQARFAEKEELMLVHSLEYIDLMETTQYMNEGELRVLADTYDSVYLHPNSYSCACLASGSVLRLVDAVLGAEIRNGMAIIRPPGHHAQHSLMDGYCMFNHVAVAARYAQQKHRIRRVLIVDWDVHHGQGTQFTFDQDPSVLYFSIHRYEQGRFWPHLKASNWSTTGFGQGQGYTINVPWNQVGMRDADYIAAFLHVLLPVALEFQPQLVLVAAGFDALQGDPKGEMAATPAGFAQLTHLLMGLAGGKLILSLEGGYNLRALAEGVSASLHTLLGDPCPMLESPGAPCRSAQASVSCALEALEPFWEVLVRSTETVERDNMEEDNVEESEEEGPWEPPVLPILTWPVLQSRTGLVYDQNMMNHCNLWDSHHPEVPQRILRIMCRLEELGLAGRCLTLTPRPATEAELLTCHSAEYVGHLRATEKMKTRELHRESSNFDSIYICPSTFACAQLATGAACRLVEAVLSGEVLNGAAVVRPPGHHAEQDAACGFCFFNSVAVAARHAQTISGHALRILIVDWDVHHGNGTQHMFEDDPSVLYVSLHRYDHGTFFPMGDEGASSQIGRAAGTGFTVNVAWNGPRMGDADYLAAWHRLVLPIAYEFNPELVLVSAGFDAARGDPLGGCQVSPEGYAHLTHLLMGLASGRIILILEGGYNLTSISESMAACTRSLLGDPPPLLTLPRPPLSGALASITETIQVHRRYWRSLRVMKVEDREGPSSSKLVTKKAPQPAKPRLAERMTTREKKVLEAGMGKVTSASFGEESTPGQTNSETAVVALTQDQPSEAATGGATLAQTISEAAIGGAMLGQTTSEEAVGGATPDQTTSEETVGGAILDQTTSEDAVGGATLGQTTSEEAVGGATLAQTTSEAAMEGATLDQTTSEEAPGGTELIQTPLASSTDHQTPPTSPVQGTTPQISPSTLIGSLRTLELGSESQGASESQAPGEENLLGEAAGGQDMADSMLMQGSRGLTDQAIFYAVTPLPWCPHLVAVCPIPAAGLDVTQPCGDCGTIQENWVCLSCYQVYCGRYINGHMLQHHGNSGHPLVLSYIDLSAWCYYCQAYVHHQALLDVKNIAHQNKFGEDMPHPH
# [2] = target: T1, Protein deacetylase HDAC6 (Homo sapiens); assay: Inhibition of HDAC6 in human CAL27 cells assessed as acetylation of alpha-tubulin at 5 uM measured after 24 hrs by immunoblot analysis; assay type: cell-based
# [3] = target: Class 1 histone deacetylase (Homo sapiens, UniProt Q13547+O15379+Q92769+Q9BY41)
# Class 1 histone deacetylase, sequence (O15379 whole entry, looked up): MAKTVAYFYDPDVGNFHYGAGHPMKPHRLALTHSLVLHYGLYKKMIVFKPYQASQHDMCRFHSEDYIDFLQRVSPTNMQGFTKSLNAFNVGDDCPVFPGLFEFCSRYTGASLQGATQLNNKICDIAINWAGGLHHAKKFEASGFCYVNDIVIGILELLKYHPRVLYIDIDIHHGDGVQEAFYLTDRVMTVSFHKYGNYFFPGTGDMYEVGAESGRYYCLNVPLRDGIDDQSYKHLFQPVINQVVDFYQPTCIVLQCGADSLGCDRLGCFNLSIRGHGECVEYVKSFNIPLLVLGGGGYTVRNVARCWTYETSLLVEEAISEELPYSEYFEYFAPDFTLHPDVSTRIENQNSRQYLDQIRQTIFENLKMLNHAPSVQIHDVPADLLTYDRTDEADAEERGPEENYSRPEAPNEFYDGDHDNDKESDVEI
# Class 1 histone deacetylase, sequence (Q13547 whole entry, looked up): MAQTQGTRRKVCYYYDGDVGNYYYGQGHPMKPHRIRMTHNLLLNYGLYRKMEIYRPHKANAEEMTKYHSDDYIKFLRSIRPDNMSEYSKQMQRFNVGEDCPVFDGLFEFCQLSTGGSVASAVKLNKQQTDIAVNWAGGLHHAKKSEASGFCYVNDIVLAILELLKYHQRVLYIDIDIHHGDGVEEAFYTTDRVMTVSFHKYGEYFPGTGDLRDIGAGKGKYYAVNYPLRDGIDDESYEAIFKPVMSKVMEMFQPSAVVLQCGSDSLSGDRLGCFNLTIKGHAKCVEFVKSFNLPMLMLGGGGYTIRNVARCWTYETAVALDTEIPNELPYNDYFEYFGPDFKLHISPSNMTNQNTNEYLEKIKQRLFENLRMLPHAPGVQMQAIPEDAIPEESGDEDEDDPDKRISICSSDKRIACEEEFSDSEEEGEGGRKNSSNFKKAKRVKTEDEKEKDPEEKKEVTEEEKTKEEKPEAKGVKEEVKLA
# Class 1 histone deacetylase, sequence (Q92769 whole entry, looked up): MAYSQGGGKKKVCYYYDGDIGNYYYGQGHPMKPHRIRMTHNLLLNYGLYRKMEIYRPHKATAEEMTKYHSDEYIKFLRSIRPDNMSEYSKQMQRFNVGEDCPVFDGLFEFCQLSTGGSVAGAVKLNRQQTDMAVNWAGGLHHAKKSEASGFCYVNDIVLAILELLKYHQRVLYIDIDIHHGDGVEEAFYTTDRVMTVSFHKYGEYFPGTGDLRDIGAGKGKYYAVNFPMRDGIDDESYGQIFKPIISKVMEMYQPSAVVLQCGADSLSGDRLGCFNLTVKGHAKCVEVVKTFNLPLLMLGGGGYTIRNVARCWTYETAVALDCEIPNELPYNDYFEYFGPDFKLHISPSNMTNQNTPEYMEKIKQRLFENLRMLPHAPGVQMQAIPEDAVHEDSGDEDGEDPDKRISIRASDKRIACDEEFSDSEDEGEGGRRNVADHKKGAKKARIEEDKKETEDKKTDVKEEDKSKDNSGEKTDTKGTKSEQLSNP
# Class 1 histone deacetylase, sequence (Q9BY41 whole entry, looked up): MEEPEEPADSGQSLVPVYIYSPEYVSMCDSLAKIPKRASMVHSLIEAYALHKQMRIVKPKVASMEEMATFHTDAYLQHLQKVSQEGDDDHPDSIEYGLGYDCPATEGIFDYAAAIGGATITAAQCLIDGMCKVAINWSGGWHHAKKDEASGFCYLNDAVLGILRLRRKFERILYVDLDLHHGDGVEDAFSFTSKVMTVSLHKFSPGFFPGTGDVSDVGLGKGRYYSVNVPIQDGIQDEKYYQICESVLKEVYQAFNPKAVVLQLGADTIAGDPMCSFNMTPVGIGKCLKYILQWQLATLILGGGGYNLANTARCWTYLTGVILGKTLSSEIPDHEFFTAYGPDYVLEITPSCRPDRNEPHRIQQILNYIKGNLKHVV
# Description: Inhibition of class 1 HDAC in human Cal27CisR cells assessed as potentiation of cisplatin-induced cytotoxicity by measuring combination index at 0.10 uM in presence of 3.2 uM cisplatin by MTT assay based Chou-Talalay analysis
smiles,measurement,setting,value
Cc1cc(C)cc(C(=O)N(CC(=O)NCc2ccccc2)Cc2ccc(C(=O)Nc3cc(-c4ccccc4)ccc3N)cc2)c1,inhibition,[1],inactive
Cc1cc(C)cc(C(=O)N(CCCCCC(=O)Nc2cc(-c3ccccc3)ccc2N)CC(=O)NCc2ccccc2)c1,inhibition,[2],inactive
CN(C)c1ccc(C(=O)N(CC(=O)NCc2ccccc2)Cc2ccc(C(=O)Nc3ccccc3N)cc2)cc1,CI,[3],< 0.2
